We go through one compound from patent publication US3963777A, “1-Polyhydroxy alkyl-1,4-benzodiazepin-2-ones” (Hoffmann-La Roche Inc., priority 1975, dated 1976).

Data set [1] in a line: standard pentamethylenetetrazole (pentetrazole) test for anticonvulsant activity, method of Orloff. In kind it is in vivo. Conditions: p.o. An excerpt: The compounds of formula I above and their pharmaceutically acceptable acid addition salts are useful as sedative muscle relaxant and anti-convulsant agents.
A further data set concerns mice. Nature of the data set: standard rotating rod test (sedative and muscle-relaxant activity). Particulars: p.o. Format: in vivo. The method, then: In this test, the ability of mice to achieve a coordinated motor performance is investigated. After peroral administration of the test substance, the mice are placed upon a horizontal slowly rotating rod and the time they remain on the rod is recorded. The ED50 is that dose which reduces the holding on period of the mice by 50% as compared to the holding on period prior to the administration of the test substance.

Data set [2] is described as follows: LD50 (p.o.), acute toxicity. Conditions: in vivo, po.

With `O=C1CN=C(c2ccccc2F)c2cc(Cl)ccc2N1CC(O)CO` (stereo not drawn) [Compound A, 7-chloro-1-(2,3-dihydroxypropyl)-5-(2-fluorophenyl)-1,3-dihydro-2H-1,4-benzodiazepin-2-one], in data set [1], the “APR 2.0 (dosage of an anticonvulsant which causes a two-fold pentetrazole consumption in contrast to an untreated control group)” value was 5.6 mg/kg. Besides, the “ED50 (dose which reduces the holding on period of the mice by 50% as compared to the holding on period prior to administration)” value in the data set on mice was 5.1 mg/kg. Further, the LD50 in data set [2] is 1250 to 2500 mg/kg.
